The source of these data is patent publication US10064911B2, “Peptides for treating cancer” (The Board of Trustees of the University of Illinois, priority 2015, dated 2018).

One series relates to HMVECs. Briefly: Thrombin-induced Ca2+ release from ER stores in HMVECs (Fura 2-AM). The series is classed as cell-based. The following applies: pre-treatment with 5 μg/ml for 20 min prior to thrombin stimulation. As for the experimental part: (FIG. 4A) HMVECs pre-treated with AP-attached IP3R3 peptide or control (AP) peptide were loaded with Fura 2-AM and 340/380 ratio was calculated after stimulation of cells with thrombin (50 nM) in the absence and in the presence of extracellular Ca^2+. Arrow, time of thrombin addition. […] The increase is normalized to control non-treated cells from the same experiment (n=4).
[…] contains EB binding consensus motif, Ser/Thr-x-Ile-Pro (SxIP) (SEQ ID NO: 5). […] The role of the interaction between EB3 and IP3R3 was recently described by Geyer et al., Cell Rep 12(1):79-89; 2015. […] The effects of IP3R3 peptide and taxol were compared in regulating Ca^2+ release.

The subject of series [1] is MDA-MB-231 human breast cancer cells. Put plainly: Triple negative breast cancer xenograft: tumor growth and neovascularization. The series is classed as in vivo, Nude mice. The note with it: for number of vessels outside of the tumor: H&E staining. The text has this:
FIG. 8A plots tumor growth curve in xenograft model; mean is shown; n=8 mice per group. FIG. 8B plots the number of vessels per area counted outside of the tumor; n=25 fields/mouse; N=5 mice; *, p<0.05; **, p<0.01.
The effect of EBIN on growth rate of triple negative (estrogen receptor [ER], progesterone receptor [PR] and human epidermal growth factor receptor-2 [HER-2] are not expressed in this cell line) human breast cancer cells using a xenograft model was investigated. Nude mice (n=8 mice per group) were injected with 3×10^6 MDA-MB-231 human breast cancer cells into the upper left mammary fat pad. All mice developed the tumor by day 13. At that time point, mice were randomized and divided by 5 groups and each group received the treatment. Study was terminated at day 24 when the tumor reached 2000 mm^3 in size. The treatment with control peptide and EBIN was performed daily for 7 days. EBIN and control peptide were delivered via tail vein injection. Control peptide was injected at 5 μM/kg body weight. EBIN was injected at 1 μM/kg and 5 μM/kg body weight.
Treatment with taxol was performed via intraperitoneal injection at 10 μM/kg body weight for 4 days. Tumor size was measured 3 times a week.
To correlate the effect of EBIN treatment with tumor neovascularization, tumor tissue was collected, fixed and stained with hematoxylin and eosin (H&E). Number of […] outside of the tumor mass was scored and normalized per area.

Series [2] relates to blood vessels ingrowth into matrigel plugs. Put plainly: In vivo ectopic matrigel plug angiogenesis. More on the design: species or system mice. The note with it: for number of vessels / vessel formation in matrigel plugs: matrigel with heparin and VEGF, plugs removed at 96 hours, HE staining. As for the experimental part: (§1) Group 1 was treated with control peptide and group 3 was treated with Myr-EBIN at 0, 36 and 60 hrs; group 2 received only 36 and 60 hour treatment. […] Scale bar, 200 μm.
EBIN effect on blood vessels in growth in an in vivo model of ectopic matrige angiogenesis was also investigated. Blood vessel in growth matrigel was pre-mixed with heparin and VEGF but not with endothelial cells, and i.p. injected into low abdomen of mice. There were two 400 μL plugs per mouse. […] These vessels were functional and perfused with blood that is apparent from the presence of red blood cells inside the vessels. In addition, mice were treated with EBIN at the time of matrigel injection (FIG. 7C,2; Group 2) or 36 hrs after matrigel (FIG. 7C,3; Group 3). Matrigel plugs were removed at 96 hours, fixed and stained with HE to assess the vessel formation.

In series [3] the test system is human VEGF-induced vascular leakage. Briefly: VEGF-induced subcutaneous vascular leakage of albumin-bound Evans Blue. The series is classed as in vivo, Balb/cJ mice. The note with it: pretreated 1 μM/kg; human VEGF 50 ng/kg intradermal; measured at 620 nm. As for the experimental part: A study investigating whether injection of the EBIN prevented vascular endothelial growth factor (VEGF)-induced microvascular leakage was carried out. Balb/cJ mice were pretreated with the EBIN peptide (1 μM/kg) or a control peptide (2T→A mutation) and then human VEGF (50 ng/kg body weights) was intradermally injected to induce vascular leakage of albumin-bound Evans Blue (see FIG. 6A). In addition, the formamide-extracted Evans Blue was quantified spectrophotometically at 620 nm and corrected for hemoglobin (740 nm) and skin weight (see FIG. 6B).

In series [4] the test system is human umbilical vein endothelial cells. Put plainly: In vitro tubulogenesis in 2D matrigel model. In kind it is cell-based. The following applies: 1 μM; assessed 16 hours after plating on matrigel. As for the experimental part: as §1
The effect of EBIN on in vitro tubulogenesis and in vivo angiogenesis was investigated using matrigel models. A single cell suspension of human umbilical vein endothelial cells was plated above matrigel-coated wells in the presence of 1 μM EBIN or control peptide; tube formation was assessed 16 hours later.

The subject of another series is endothelial cell. In kind it is cell-based. The following applies: data not shown.
Series [5] in a line: Acute toxicity testing in vivo (eye). More on the design: species or system C57BL/6 mice. As for the experimental part: Representative images of Fundus Fluorescein Angiography F and corresponding Optical Coherence Tomography (FIG. 12B) at day 8 of intravitreal treatment with EBIN (1 μg/eye).
A short term study is designed to assess safety of administration in vivo. C57BL/6 mice (n=10, 5 mice per group/treatment route) are randomized and divided into two groups. The first group is treated with EBIN in the right eye via eye drops delivered twice daily, 5 μg per eye (10 μl) and, the second group is treated with intravitreal injection of EBIN in the right eye at the maximum dose, 1 μg per eye (2 μl) on day one. The intravitreal injection is performed under ketamine/xylazine (100 mg/5 mg/kg) anesthesia. Both groups are monitored daily for general health including body weight as well as any eye abnormalities including opacity, exophthalmia enophthalmia, conjunctivitis, abnormal secretions or crusting, and corneal ulcers for a period of 8 days. Animals are subsequently subjected to fluorescein angiography and OCT imaging.

Series [6] concerns laser-induced choroidal neovascularization (CNV). The note with it: 1 μg/eye single intravitreal injection; day 15; versus control peptide.
Protocol: Quantification of the area of fluorescein leakage (FIG. 11D) and lesion (FIG. 11E) using images shown in (FIG. 11A) and (FIG. 11C); n=6-9 mice per group; **, p<0.01. […] Comparison between groups were performed using ANOVA.
To assess the barrier-protective and anti-angiogenic activities of EBIN, EBIN is tested in murine models of CNV. In addition to treatment with EBIN, LEAF™ antibody (a monoclonal rat antibody against mouse VEGF-A) and control peptide (Myr-FAEIPTI), were used as positive and negative experimental controls, respectfully.
Mice were anesthetized with a mixture of ketamine/xylazine (100 mg/5 mg/kg IP) and their pupils were dilated with a topical application of Cyclomydril (Alcon Laboratories, Fort Worth, Tex.). The fundus was viewed with an imaging camera, and laser photocoagulation was induced using the image-guided laser system (Micron IV, Phoenix Research Laboratories, Pleasanton, Calif.). Four laser burns at equal distance from the optic nerve were induced one by one in right eye by a green Argon laser pulse with a wavelength of 532 nm, a fixed diameter of 50 μm, duration of 70 ms, and power levels from 210-250 mW. Appearance of bubble or a small subretinal hemorrhage (diameter <1 mm) at the laser spot serves to indicate rupture of the Bruch's membrane and as confirmation of laser-induced CNV. This procedure was performed only on the right eye of each mouse. […]

“Also recorded” adds a separate entry of the source.

For the compound `CC(=O)O[C@H]1C(=O)[C@@]2(C)[C@H]([C@H](OC(=O)c3ccccc3)[C@]3(O)C[C@H](OC(=O)[C@H](O)[C@@H](NC(=O)c4ccccc4)c4ccccc4)C(C)=C1C3(C)C)[C@]1(OC(C)=O)CO[C@@H]1C[C@@H]2O` [taxol, reference compound], the “release of Ca2+ from ER in response to thrombin” value with HMVECs is listed as “inhibits release of Ca^2+ from ER to the same extent as IP3R3 peptide”. Moreover, the “number of vessels outside of the tumor” value in series [1] (10 μM/kg intraperitoneal for 4 days) is reported as “significantly reduced”. The tumor growth entry in series [1] (intraperitoneal injection at 10 μM/kg body weight for 4 days) is reported as “significant delay in the tumor growth”.
For the compound FAEIPTI [reference compound], the “number of vessels / vessel formation in matrigel plugs” value in series [2] was “newly formed blood vessels grew into the matrigel”.
In the case of FTEIPTI [EBIN], in series [3], the “subcutaneous vascular leak of albumin-bound Evans Blue” value is listed as “significantly inhibited subcutaneous vascular leak”. Also, the “tube formation (tubulogenesis)” value in series [4] was “significantly abolished formation of tubes; also recorded: inhibited tubulogenesis”. Also, in series [2], the “number of vessels / vessel formation in matrigel plugs” value is given as “markedly reduced”. For the same compound, in series [2] (treatment started 36 hrs after matrigel versus at the time of matrigel injection), the “effect of post-treatment versus treatment on vessel ingrowth” value is “post-treatment was as effective as a treatment”. Also, the “endothelial cell death or cell cycle arrest” value in the series on endothelial cell was “did not induce endothelial cell death or cell cycle arrest”. Moreover, in series [1] (5 μM/kg, tail vein), the “number of vessels outside of the tumor” value is given as “significantly reduced; also recorded: superior effect as compared to taxol”. Also, the tumor growth rate entry in series [1] (tail vein injection, 1 μM/kg body weight daily for 7 days) is “developed the tumor at the same rate as untreated mice”. In series [1] (tail vein injection, 5 μM/kg body weight daily for 7 days), the tumor size result is “reduction in the tumor size; also recorded: significantly smaller as compared to control untreated group”. In series [5] (eye drops 5 μg per eye twice daily or intravitreal 1 μg per eye, 8 days, with or without CNV induction), the toxicity entry is reported as “No toxicity was observed”. In series [5] (intravitreal 1 μg/eye, day 8), the “crystals/precipitates in the eye” value is “forms small crystals/precipitates inside of various humor”. In addition, the “changes in retinal vasculature, retinal pigment epithelium, choroid, sclera” value in series [5] (intravitreal 1 μg/eye, day 8, angiography and OCT) is listed as “no visible changes”. In addition, in series [6], the “vascular leakage (area of fluorescein leakage)” value was “significantly reduced”.
